Results on 15 compounds are retold here after US20240252506A1 (Hoffmann-La Roche Inc., priority 2021, published 2024).

Each structure is given as a SMILES string. ≈ marks a conversion by molar mass, not a printed value.

The test system of this test is Escherichia coli ATCC 25922. Description: Minimal Inhibitory Concentration (MIC) determination, broth microdilution (CLSI M07-A10). The class given is cell-based. To be noted: Escherichia coli, ATCC25922, strain Escherichia coli ATCC 25922, 18-24 hours at 35±2° C., lowest concentration for complete growth inhibition (no visible growth), read-out: Escherichia coli growth inhibition MIC. The method in brief:
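MIC read visually as the lowest concentration with complete growth inhibition after 18-24 h at 35±2° C, ambient air. Method follows CLSI M07-A10 broth microdilution, two-fold compound series, inoculum standardized to 0.5 McFarland then diluted 1:200.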
A general note: Broth dilution looks for growth in wells or tubes with falling amounts of substance.
Regarding `C[C@H](C(=O)NCCn1nnc2c(F)c3c(c(F)c21)CC(CN1CCC2(CC1)CN(c1cnc4c(n1)NC(=O)CO4)C(=O)O2)C3)N(C)C` (stereo partly drawn) [Example 149, (2R)—N-[2-[4,8-Difluoro-6-[[2-oxo-3-(3-oxo-4H-pyrazino[2,3-b][1,4]oxazin-6-yl)-1-oxa-3,8-diazaspiro[4.5]decan-8-yl]methyl]-6,7-dihydro-5H-cyclopenta[f]benzotriazol-1-yl]ethyl]-2-(dimethylamino)propanamide], the MIC is 1 µg/mL (≈ 1.53 µM).

In the case of `C[C@H](C(=O)NCCn1nc2c(F)c3c(c(F)c2n1)CC(CN1CCC2(CC1)CN(c1cnc4c(n1)NC(=O)CO4)C(=O)O2)C3)N(C)C` [Example 150, (2R)-N[2-[4,8-difluoro-6-[[2-oxo-3-(3-oxo-4H-pyrazino[2,3-b][1,4]oxazin-6-yl)-1-oxa-3,8-diazaspiro[4.5]decan-8-yl]methyl]-6,7-dihydro-5H-cyclopenta[f]benzotriazol-2-yl]ethyl]-2-(dimethylamino)propanamide], the MIC was found to be 1 µg/mL (≈ 1.53 µM). The result for `C[C@H](C(=O)NCc1nc2cc3c(c(F)c2[nH]1)CC(CN1CCC2(CC1)CN(c1cnc4c(n1)NC(=O)CO4)C(=O)O2)C3)N(C)C` (stereo partly drawn) [Example 151] reads 0.5 µg/mL (≈ 0.804 µM); that for `CC(=O)N(C)CCn1nc2c(F)c3c(c(F)c2n1)CC(CN1CCC2(CC1)CN(c1cnc4c(n1)NC(=O)CO4)C(=O)O2)C3` [Example 154, N-[2-[4,8-difluoro-6-[[2-oxo-3-(3-oxo-4H-pyrazino[2,3-b][1,4]oxazin-6-yl)-1-oxa-3,8-diazaspiro[4.5]decan-8-yl]methyl]-6,7-dihydro-5H-cyclopenta[f]benzotriazol-2-yl]ethyl]-N-methyl-acetamide], 2 µg/mL (≈ 3.27 µM). To `CN(C)CC(=O)N(C)CCn1nc2c(F)c3c(c(F)c2n1)CC(CN1CCC2(CC1)CN(c1cnc4c(n1)NC(=O)CO4)C(=O)O2)C3` [Example 155, N-[2-[4,8-difluoro-6-[[2-oxo-3-(3-oxo-4H-pyrazino[2,3-b][1,4]oxazin-6-yl)-1-oxa-3,8-diazaspiro[4.5]decan-8-yl]methyl]-6,7-dihydro-5H-cyclopenta[f]benzotriazol-2-yl]ethyl]-2-(dimethylamino)-N-methyl-acetamide] belongs 1 µg/mL (≈ 1.53 µM); to `O=C1COc2ncc(N3CC4(CCN(CC5Cc6c(c(F)c7nn(CCNC(=O)[C@H]8CCCN8)nc7c6F)C5)CC4)OC3=O)nc2N1` [Example 158, (2R)—N-[2-[4,8-Difluoro-6-[[2-oxo-3-(3-oxo-4H-pyrazino[2,3-b][1,4]oxazin-6-yl)-1-oxa-3,8-diazaspiro[4.5]decan-8-yl]methyl]-6,7-dihydro-5H-cyclopenta[f]benzotriazol-2-yl]ethyl]pyrrolidine-2-carboxamide], 0.25 µg/mL (≈ 0.383 µM); to `CNCC(=O)NCCn1nc2c(F)c3c(c(F)c2n1)CC(CN1CCC2(CC1)CN(c1cnc4c(n1)NC(=O)CO4)C(=O)O2)C3` [Example 159, N-[2-[4,8-difluoro-6-[[2-oxo-3-(3-oxo-4H-pyrazino[2,3-b][1,4]oxazin-6-yl)-1-oxa-3,8-diazaspiro[4.5]decan-8-yl]methyl]-6,7-dihydro-5H-cyclopenta[f]benzotriazol-2-yl]ethyl]-2-(methylamino)acetamide], 0.25 µg/mL (≈ 0.399 µM).

Regarding `CNCC(=O)NCc1nc2cc3c(c(F)c2[nH]1)CC(CN1CCC2(CC1)CN(c1cnc4c(n1)NC(=O)CO4)C(=O)O2)C3.O=C(O)C(F)(F)F` (stereo not drawn) [Example 160, N-[[8-fluoro-6-[[2-oxo-3-(3-oxo-4H-pyrazino[2,3-b][1,4]oxazin-6-yl)-1-oxa-3,8-diazaspiro[4.5]decan-8-yl]methyl]-1,5,6,7-tetrahydrocyclopenta[f]benzimidazol-2-yl]methyl]-2-(methylamino)acetamide; 2,2,2-trifluoroacetic acid], the MIC was 0.5 µg/mL.

As for `O=C(O)C(F)(F)F.O=C1COc2ncc(N3CC4(CCN(CC5Cc6cc7nc(CNC(=O)[C@H]8CCCN8)[nH]c7c(F)c6C5)CC4)OC3=O)nc2N1` (stereo partly drawn) [Example 161, (2R)-N-[[8-fluoro-6-[[2-oxo-3-(3-oxo-4H-pyrazino[2,3-b][1,4]oxazin-6-yl)-1-oxa-3,8-diazaspiro[4.5]decan-8-yl]methyl]-1,5,6,7-tetrahydrocyclopenta[f]benzimidazol-2-yl]methyl]pyrrolidine-2-carboxamide; 2,2,2-trifluoroacetic acid], the MIC came out at 0.25 µg/mL.

For `O=C1COc2ncc(N3CC4(CCN(CC5Cc6c(c(F)c7c(nnn7CCNC(=O)[C@H]7CCCN7)c6F)C5)CC4)OC3=O)nc2N1` (stereo partly drawn) [Example 162, (2R)-N-[2-[4,8-difluoro-6-[[2-oxo-3-(3-oxo-4H-pyrazino[2,3-b][1,4]oxazin-6-yl)-1-oxa-3,8-diazaspiro[4.5]decan-8-yl]methyl]-6,7-dihydro-5H-cyclopenta[f]benzotriazol-1-yl]ethyl]pyrrolidine-2-carboxamide], the MIC was determined as 1 µg/mL (≈ 1.53 µM). With `O=C1COc2ncc(N3CC4(CCN(CC5Cc6c(c(F)c7nn(CCNC(=O)[C@H]8C[C@H](O)CN8)nc7c6F)C5)CC4)OC3=O)nc2N1` [Example 163, (2R,4S)-N-[2-[4,8-difluoro-6-[[2-oxo-3-(3-oxo-4H-pyrazino[2,3-b][1,4]oxazin-6-yl)-1-oxa-3,8-diazaspiro[4.5]decan-8-yl]methyl]-6,7-dihydro-5H-cyclopenta[f]benzotriazol-2-yl]ethyl]-4-hydroxy-pyrrolidine-2-carboxamide], the MIC worked out at 0.5 µg/mL (≈ 0.748 µM). The result for `O=C1COc2ncc(N3CC4(CCN(CC5Cc6c(c(F)c7c(nnn7CCNC(=O)[C@H]7C[C@H](O)CN7)c6F)C5)CC4)OC3=O)nc2N1` (stereo partly drawn) [Example 164, (2R,4S)-N-[2-[4,8-difluoro-6-[[2-oxo-3-(3-oxo-4H-pyrazino[2,3-b][1,4]oxazin-6-yl)-1-oxa-3,8-diazaspiro[4.5]decan-8-yl]methyl]-6,7-dihydro-5H-cyclopenta[f]benzotriazol-1-yl]ethyl]-4-hydroxy-pyrrolidine-2-carboxamide] reads 2 µg/mL (≈ 2.99 µM); that for `CN(CCn1nc2c(F)c3c(c(F)c2n1)CC(CN1CCC2(CC1)CN(c1cnc4c(n1)NC(=O)CO4)C(=O)O2)C3)C(=O)CN.O=CO` [Example 165, 2-Amino-N-[2-[4,8-difluoro-6-[[2-oxo-3-(3-oxo-4H-pyrazino[2,3-b][1,4]oxazin-6-yl)-1-oxa-3,8-diazaspiro[4.5]decan-8-yl]methyl]-6,7-dihydro-5H-cyclopenta[f]benzotriazol-2-yl]ethyl]-N-methyl-acetamide;formic acid], 0.5 µg/mL.

With `CN(C)CC(=O)NCCn1nnc2c(F)c3c(c(F)c21)CC(CN1CCC2(CC1)CN(c1cnc4c(n1)NC(=O)CO4)C(=O)O2)C3` (stereo not drawn) [Example 168, N-[2-[4,8-difluoro-6-[[2-oxo-3-(3-oxo-4H-pyrazino[2,3-b][1,4]oxazin-6-yl)-1-oxa-3,8-diazaspiro[4.5]decan-8-yl]methyl]-6,7-dihydro-5H-cyclopenta[f]benzotriazol-1-yl]ethyl]-2-(dimethylamino)acetamide], the MIC stood at 0.5 µg/mL (≈ 0.78 µM). The result for `CN[C@H](C)C(=O)NCc1nc2cc3c(c(F)c2o1)CC(CN1CCC2(CC1)CN(c1cnc4c(n1)NC(=O)CO4)C(=O)O2)C3` (stereo partly drawn) [Example 169, (2R)—N-[[8-Fluoro-6-[[2-oxo-3-(3-oxo-4H-pyrazino[2,3-b][1,4]oxazin-6-yl)-1-oxa-3,8-diazaspiro[4.5]decan-8-yl]methyl]-6,7-dihydro-5H-cyclopenta[f][1,3]benzoxazol-2-yl]methyl]-2-(methylamino)propanamide] reads 1 µg/mL (≈ 1.64 µM).

What is called MIC is the lowest concentration found to suppress growth.
